Experimental data taken from patent US20130053381A1, “2,4-DIOXO-1,4-DIHYDRO-2H-QUINAZOLIN-3-YL-SULFONAMIDE DERIVATIVES” (NOVARTIS AG, priority 2010, published 2013).
Where two headings read alike, the source gives them in different places.

Test system: OF1 mice
Test: Maximal electroshock test (MES Test)
Type: in vivo
Settings: Mus musculus, read-out: %-Protection; for responders at 50 mg/kg: p.o.
Procedure: Compounds of the invention were tested in OF1 mice using the maximal electroshock test (MES Test) described in detail by Schmutz et al., Naunyn-Schmiedeberg's Arch Pharmacol 1990, 342, 61-66. Briefly, generalized tonic-clonic convulsions of the hind extremities were induced by passing electrical current through temporal electrodes (50 Hz, 18 mA, 0.2s). […] 30 mg/kg carbamazepine was used as a positive control; mice were classified as protected by a compound If the duration of the seizure lasted only 3 second or less. Five mice were used for each treatment condition and the percentage of protected mice was used as readout (i.e. a compound could give 0%, 20%, 40%, 60%, 80% or 100% protection). Usually, compounds of the invention or their parents were given at a dose of 50 mg/kg, p.o., 1 hour prior to induction of convulsions (i.e. “pre-treatment time −1 h”).
ED50 values (ED: effective dose) were calculated using GraphPad Prism, v4.02. after shock administration, mouse blood was collected for determination of compounds' blood exposure.

[1] = po, 50 mg/kg, pre-treatment time −1 h

| Structure (SMILES) | responders at 50 mg/kg [1] [%] | other results |
| --- | --- | --- |
| CCc1cc2[nH]c(=O)n(N(C(=O)OC)S(C)(=O)=O)c(=O)c2cc1-c1ccnn1C [Example 2.07, Methanesulfonyl-[7-ethyl-6-(2-methyl-2H-pyrazol-3-yl)-2,4-dioxo-1,4-dihydro-2H-quinazolin-3-yl]-carbamic acid methyl ester] | 100 |  |
| CCCCCC(=O)N(n1c(=O)[nH]c2cc(C(F)(F)F)c(-n3ccnc3)cc2c1=O)S(C)(=O)=O [Example 4.08, N-Hexanoyl-N-(6-imidazol-1-yl-2,4-dioxo-7-trifluoromethyl-1,4-dihydro-2H-quinazolin-3-yl)-methanesulfonamide] | 20 |  |
| CCCC(=O)N(n1c(=O)c2cc(-c3ccnn3C)c(C(C)C)cc2n(C(=O)CCC)c1=O)S(C)(=O)=O [Example 3.26, N-Butyryl-N-[1-butyryl-7-isopropyl-6-(2-methyl-2H-pyrazol-3-yl)-2,4-dioxo-1,4-dihydro-2H-quinazolin-3-yl]-methanesulfonamide] | 80 |  |
| CCOC(=O)N(n1c(=O)[nH]c2cc(C(F)(F)F)c(-n3cccc3)cc2c1=O)S(C)(=O)=O [Example 8.05, (2,4-Dioxo-6-pyrrol-1-yl-7-trifluoromethyl-1,4-dihydro-2H-quinazolin-3-yl)-methanesulfonyl-carbamic acid ethyl ester] | 60 |  |
| CS(=O)(=O)N(C(=O)C1CCCC1)n1c(=O)[nH]c2cc(C(F)(F)F)c(-n3ccnc3)cc2c1=O [Example 4.07] | 40 |  |
| CC(C)C(=O)N(n1c(=O)[nH]c2cc(C(F)(F)F)c(-n3ccnc3)cc2c1=O)S(C)(=O)=O [Example 4.05, N-(6-Imidazol-1-yl-2,4-dioxo-7-trifluoromethyl-1,4-dihydro-2H-quinazolin-3-yl)-N-isobutyryl-methanesulfonamide] | 80 |  |
| CCCC(=O)N(n1c(=O)[nH]c2cc(C(F)(F)F)c(-c3ccnn3C(C)C)cc2c1=O)S(C)(=O)=O [Example 5.03, N-Butyryl-N-[6-(2-isopropyl-2H-pyrazol-3-yl)-2,4-dioxo-7-trifluoromethyl-1,4-dihydro-2H-quinazolin-3-yl]-methanesulfonamide] | 40 |  |
| CCc1cc2[nH]c(=O)n(N(C(=O)OCCOC)S(C)(=O)=O)c(=O)c2cc1-c1ccnn1C [Example 2.05, Methanesulfonyl-[7-ethyl-6-(2-methyl-2H-pyrazol-3-yl)-2,4-dioxo-1,4-dihydro-2H-quinazolin-3-yl]-carbamic acid 2-methoxy-ethyl ester] |  | responders at 25 mg/kg (po, Dose: 25 mg/kg, p.o. (footnote b), pre-treatment time −1 h): 80% |
| CC(C)CC(=O)N(n1c(=O)[nH]c2cc(C(F)(F)F)c(-n3cnnc3)cc2c1=O)S(C)(=O)=O [Example 9.01, N-(2,4-Dioxo-6-[1,2,4]triazol-4-yl-7-trifluoromethyl-1,4-dihydro-2H-quinazolin-3-yl)-N-(3-methyl-butyryl)-methanesulfonamide] |  | responders at 50 mg/kg (po, 50 mg/kg, pre-treatment time −2 h (footnote a)): 40% |
| CCCCOC(=O)N(n1c(=O)[nH]c2cc(C(F)(F)F)c([C@H]3CCCO3)cc2c1=O)S(C)(=O)=O [Example 10.06, Methanesulfonyl-N—((R)-2,4-dioxo-6-tetrahydro-furan-2-yl-7-trifluoromethyl-1,4-dihydro-2H-quinazolin-3-yl)-carbamic acid butyl ester] | 40 |  |
| CC(C)c1cc2[nH]c(=O)n(N(C(=O)C(C)(C)C)S(C)(=O)=O)c(=O)c2cc1-c1ccnn1C [Example 3.23, N-(2,2-Dimethyl-propionyl)-N-[7-isopropyl-6-(2-methyl-2H-pyrazol-3-yl)-2,4-dioxo-1,4-dihydro-2H-quinazolin-3-yl]-methanesulfonamide] | 20 |  |
| CCCCC(=O)N(n1c(=O)[nH]c2cc(C(F)(F)F)c(-c3ccnn3C(C)C)cc2c1=O)S(C)(=O)=O [N-[6-(2-Isopropyl-2H-pyrazol-3-yl)-2,4-dioxo-7-trifluoromethyl-1,4-dihydro-2H-quinazolin-3-yl]-N-pentanoyl-methanesulfonamide] |  | responders at 50 mg/kg (dose of up to 50 mg/kg, 1 hour prior to induction of convulsions): 0% |
